# Results from PubChem BioAssay (NCI).
#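 The compound was tested at five concentrations on cells cultured in 96-well plates, with a 48-hour exposure period. The concentration for full growth arrest is given as TGI.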
# How the values were obtained:
# Assay in all cases: NCI anticancer screen, dose series, 48 h
# 786-0 renal = system: 786-0 renal
# A498 renal = system: A498 renal
# A549 NSCLC = system: A549 NSCLC
# ACHN renal = system: ACHN renal
# CAKI-1 renal = system: CAKI-1 renal
# CCRF-CEM leukemia = system: CCRF-CEM leukemia
# COLO 205 colon = system: COLO 205 colon
# DLD-1 colon = system: DLD-1 colon
# DMS 114 small cell lung = system: DMS 114 small cell lung
# DMS 273 small cell lung = system: DMS 273 small cell lung
# EKVX NSCLC = system: EKVX NSCLC
# HCC-2998 colon = system: HCC-2998 colon
# HCT-116 colon = system: HCT-116 colon
# HCT-15 colon = system: HCT-15 colon
# HL-60(TB) leukemia = system: HL-60(TB) leukemia
# HOP-18 NSCLC = system: HOP-18 NSCLC
# HOP-62 NSCLC = system: HOP-62 NSCLC
# HOP-92 NSCLC = system: HOP-92 NSCLC
# HT29 colon = system: HT29 colon
# IGROV1 ovarian = system: IGROV1 ovarian
# K-562 leukemia = system: K-562 leukemia
# KM12 colon = system: KM12 colon
# KM20L2 colon = system: KM20L2 colon
# LOX IMVI melanoma = system: LOX IMVI melanoma
# LXFL 529 NSCLC = system: LXFL 529 NSCLC
# M14 melanoma = system: M14 melanoma
# M19-MEL melanoma = system: M19-MEL melanoma
# MALME-3M melanoma = system: MALME-3M melanoma
# MOLT-4 leukemia = system: MOLT-4 leukemia
# NCI-H226 lung = system: NCI-H226 lung
# NCI-H23 lung = system: NCI-H23 lung
# NCI-H460 lung = system: NCI-H460 lung
# NCI-H522 lung = system: NCI-H522 lung
# OVCAR-3 ovarian = system: OVCAR-3 ovarian
# OVCAR-4 ovarian = system: OVCAR-4 ovarian
# OVCAR-5 ovarian = system: OVCAR-5 ovarian
# OVCAR-8 ovarian = system: OVCAR-8 ovarian
# RPMI-8226 leukemia = system: RPMI-8226 leukemia
# RXF 393 renal = system: RXF 393 renal
# RXF-631 renal = system: RXF-631 renal
# SF-268 CNS = system: SF-268 CNS
# SF-295 CNS = system: SF-295 CNS
# SF-539 CNS = system: SF-539 CNS
# SK-MEL-2 melanoma = system: SK-MEL-2 melanoma
# SK-MEL-28 melanoma = system: SK-MEL-28 melanoma
# SK-MEL-5 melanoma = system: SK-MEL-5 melanoma
# SK-OV-3 ovarian = system: SK-OV-3 ovarian
# SN12C renal = system: SN12C renal
# SNB-19 CNS = system: SNB-19 CNS
# SNB-75 CNS = system: SNB-75 CNS
# SNB-78 CNS = system: SNB-78 CNS
# SR leukemia = system: SR leukemia
# SW-620 colon = system: SW-620 colon
# TK-10 renal = system: TK-10 renal
# U251 CNS = system: U251 CNS
# UACC-257 melanoma = system: UACC-257 melanoma
# UACC-62 melanoma = system: UACC-62 melanoma
# UO-31 renal = system: UO-31 renal
# XF 498 CNS = system: XF 498 CNS
smiles,measurement,setting,value
N#C/C(=C\c1c(Cl)cccc1Cl)c1ccccc1,TGI,786-0 renal,> 56.6 µM
same,TGI,A498 renal,25.4 µM
same,TGI,A549 NSCLC,> 100 µM
same,TGI,ACHN renal,> 100 µM
same,TGI,CAKI-1 renal,> 100 µM
same,TGI,CCRF-CEM leukemia,11.9 µM
same,TGI,COLO 205 colon,7.16 µM
same,TGI,DLD-1 colon,> 100 µM
same,TGI,DMS 114 small cell lung,> 39.5 µM
same,TGI,DMS 273 small cell lung,11.8 µM
same,TGI,EKVX NSCLC,> 100 µM
same,TGI,HCC-2998 colon,> 100 µM
same,TGI,HCT-116 colon,> 100 µM
same,TGI,HCT-15 colon,> 100 µM
same,TGI,HL-60(TB) leukemia,15.9 µM
same,TGI,HOP-18 NSCLC,> 100 µM
same,TGI,HOP-62 NSCLC,> 31.4 µM
same,TGI,HOP-92 NSCLC,41.1 µM
same,TGI,HT29 colon,> 59.5 µM
same,TGI,IGROV1 ovarian,> 100 µM
same,TGI,K-562 leukemia,> 100 µM
same,TGI,KM12 colon,> 100 µM
same,TGI,KM20L2 colon,21.8 µM
same,TGI,LOX IMVI melanoma,> 68.5 µM
same,TGI,LXFL 529 NSCLC,> 100 µM
same,TGI,M14 melanoma,> 76.3 µM
same,TGI,M19-MEL melanoma,> 100 µM
same,TGI,MALME-3M melanoma,56 µM
same,TGI,MOLT-4 leukemia,> 66.5 µM
same,TGI,NCI-H226 lung,> 48.9 µM
same,TGI,NCI-H23 lung,> 87.9 µM
same,TGI,NCI-H460 lung,> 58.5 µM
same,TGI,NCI-H522 lung,40.9 µM
same,TGI,OVCAR-3 ovarian,19.9 µM
same,TGI,OVCAR-4 ovarian,> 96.3 µM
same,TGI,OVCAR-5 ovarian,> 100 µM
same,TGI,OVCAR-8 ovarian,> 100 µM
same,TGI,RPMI-8226 leukemia,> 100 µM
same,TGI,RXF 393 renal,25.7 µM
same,TGI,RXF-631 renal,> 100 µM
same,TGI,SF-268 CNS,> 100 µM
same,TGI,SF-295 CNS,65.5 µM
same,TGI,SF-539 CNS,9.53 µM
same,TGI,SK-MEL-2 melanoma,39.3 µM
same,TGI,SK-MEL-28 melanoma,> 100 µM
same,TGI,SK-MEL-5 melanoma,> 46.8 µM
same,TGI,SK-OV-3 ovarian,> 65.9 µM
same,TGI,SN12C renal,> 69.5 µM
same,TGI,SNB-19 CNS,78.5 µM
same,TGI,SNB-75 CNS,7.76 µM
same,TGI,SNB-78 CNS,> 66.8 µM
same,TGI,SR leukemia,6.04 µM
same,TGI,SW-620 colon,> 100 µM
same,TGI,TK-10 renal,> 100 µM
same,TGI,U251 CNS,> 90.1 µM
same,TGI,UACC-257 melanoma,> 100 µM
same,TGI,UACC-62 melanoma,> 31.3 µM
same,TGI,UO-31 renal,> 100 µM
same,TGI,XF 498 CNS,33.4 µM
O=[N+]([O-])c1ccc(N=Nc2c(O)[nH]c3ccc(Br)cc23)cc1,TGI,786-0 renal,25.2 µM
same,TGI,A498 renal,49.1 µM
same,TGI,A549 NSCLC,44.9 µM
same,TGI,ACHN renal,42.7 µM
same,TGI,CAKI-1 renal,> 58.4 µM
same,TGI,CCRF-CEM leukemia,> 49.1 µM
same,TGI,COLO 205 colon,> 68.7 µM
same,TGI,DLD-1 colon,> 46.8 µM
same,TGI,DMS 114 small cell lung,47.7 µM
same,TGI,DMS 273 small cell lung,24 µM
same,TGI,EKVX NSCLC,58.9 µM
same,TGI,HCC-2998 colon,> 100 µM
same,TGI,HCT-116 colon,80.1 µM
same,TGI,HCT-15 colon,> 74.3 µM
same,TGI,HL-60(TB) leukemia,25.2 µM
same,TGI,HOP-18 NSCLC,40.6 µM
same,TGI,HOP-62 NSCLC,33.8 µM
same,TGI,HOP-92 NSCLC,26.5 µM
same,TGI,HT29 colon,> 100 µM
same,TGI,IGROV1 ovarian,> 53.2 µM
same,TGI,K-562 leukemia,> 43 µM
same,TGI,KM12 colon,> 100 µM
same,TGI,KM20L2 colon,> 100 µM
same,TGI,LOX IMVI melanoma,48.8 µM
same,TGI,LXFL 529 NSCLC,> 68.7 µM
same,TGI,M14 melanoma,> 52.8 µM
same,TGI,M19-MEL melanoma,34.7 µM
same,TGI,MALME-3M melanoma,58 µM
same,TGI,MOLT-4 leukemia,> 51.7 µM
same,TGI,NCI-H226 lung,37.2 µM
same,TGI,NCI-H23 lung,> 51.3 µM
same,TGI,NCI-H460 lung,> 46.5 µM
same,TGI,NCI-H522 lung,> 87.7 µM
same,TGI,OVCAR-3 ovarian,45.9 µM
same,TGI,OVCAR-4 ovarian,33.4 µM
same,TGI,OVCAR-8 ovarian,28.3 µM
same,TGI,RPMI-8226 leukemia,45.6 µM
same,TGI,RXF 393 renal,35.6 µM
same,TGI,RXF-631 renal,33 µM
same,TGI,SF-268 CNS,34.8 µM
same,TGI,SF-295 CNS,25 µM
same,TGI,SF-539 CNS,32.1 µM
same,TGI,SK-MEL-2 melanoma,99.2 µM
same,TGI,SK-MEL-28 melanoma,32.9 µM
same,TGI,SK-MEL-5 melanoma,> 68 µM
same,TGI,SK-OV-3 ovarian,45.6 µM
same,TGI,SN12C renal,> 31.6 µM
same,TGI,SNB-19 CNS,36.6 µM
same,TGI,SNB-75 CNS,> 48.1 µM
same,TGI,SNB-78 CNS,42.3 µM
same,TGI,SR leukemia,> 53.9 µM
same,TGI,SW-620 colon,> 100 µM
same,TGI,TK-10 renal,36 µM
same,TGI,U251 CNS,38.2 µM
same,TGI,UACC-257 melanoma,43.4 µM
same,TGI,UACC-62 melanoma,> 51.2 µM
same,TGI,UO-31 renal,> 73.5 µM
same,TGI,XF 498 CNS,53.7 µM
Nc1nc(-c2ccccc2)cc(-c2ccccc2O)n1,TGI,786-0 renal,> 100 µM
same,TGI,A498 renal,> 100 µM
same,TGI,A549 NSCLC,> 100 µM
same,TGI,ACHN renal,> 100 µM
same,TGI,CAKI-1 renal,> 100 µM
same,TGI,CCRF-CEM leukemia,> 100 µM
same,TGI,COLO 205 colon,> 100 µM
same,TGI,DLD-1 colon,> 100 µM
same,TGI,DMS 114 small cell lung,> 100 µM
same,TGI,DMS 273 small cell lung,> 100 µM
same,TGI,EKVX NSCLC,> 100 µM
same,TGI,HCC-2998 colon,> 100 µM
same,TGI,HCT-116 colon,49 µM
same,TGI,HL-60(TB) leukemia,43.5 µM
same,TGI,HOP-18 NSCLC,> 100 µM
same,TGI,HOP-62 NSCLC,74.9 µM
same,TGI,HOP-92 NSCLC,> 100 µM
same,TGI,HT29 colon,> 100 µM
same,TGI,IGROV1 ovarian,> 100 µM
same,TGI,K-562 leukemia,> 100 µM
same,TGI,KM12 colon,79.5 µM
same,TGI,KM20L2 colon,> 100 µM
same,TGI,LOX IMVI melanoma,> 100 µM
same,TGI,LXFL 529 NSCLC,> 100 µM
same,TGI,M14 melanoma,> 100 µM
same,TGI,M19-MEL melanoma,> 100 µM
same,TGI,MALME-3M melanoma,> 100 µM
same,TGI,MOLT-4 leukemia,80.2 µM
same,TGI,NCI-H226 lung,53.2 µM
same,TGI,NCI-H23 lung,> 100 µM
same,TGI,NCI-H460 lung,> 100 µM
same,TGI,NCI-H522 lung,> 100 µM
same,TGI,OVCAR-3 ovarian,> 100 µM
same,TGI,OVCAR-4 ovarian,> 100 µM
same,TGI,OVCAR-5 ovarian,68.2 µM
same,TGI,OVCAR-8 ovarian,> 100 µM
same,TGI,RPMI-8226 leukemia,75.8 µM
same,TGI,RXF 393 renal,53.9 µM
same,TGI,RXF-631 renal,> 100 µM
same,TGI,SF-268 CNS,> 100 µM
same,TGI,SF-295 CNS,> 100 µM
same,TGI,SF-539 CNS,> 100 µM
same,TGI,SK-MEL-28 melanoma,> 100 µM
same,TGI,SK-OV-3 ovarian,> 100 µM
same,TGI,SN12C renal,> 100 µM
same,TGI,SNB-19 CNS,> 100 µM
same,TGI,SNB-75 CNS,82.4 µM
same,TGI,SNB-78 CNS,> 100 µM
same,TGI,SR leukemia,> 100 µM
same,TGI,SW-620 colon,> 100 µM
same,TGI,TK-10 renal,98.2 µM
same,TGI,U251 CNS,> 100 µM
same,TGI,UACC-257 melanoma,> 100 µM
same,TGI,UACC-62 melanoma,> 100 µM
same,TGI,UO-31 renal,28.7 µM
same,TGI,XF 498 CNS,> 100 µM
